Experimental data: patent US6875764B1, “Urea and thiourea compounds useful for treatment of coccidiosis” (New Pharma Research Sweden AB, priority 1999, dated 2005)

Experiments:
[1] = tested on: Eimeria spp. (E. acervulina, E. maxima, E. necatrix, E. tenella and E. brunetti); experiment: Prophylactic anticoccidial evaluation in vivo in chickens of Habbared X breed, drug in feed; design: species or system chicken; details: for Average number of Eimeria spp. oocysts/g faeces, day after hatch 14: day 14 after hatch; for Average number of Eimeria spp. oocysts/g faeces, day after hatch 14 / Average number of Eimeria spp. oocysts/g faeces, day after hatch 15 / Average number of Eimeria spp. oocysts/g faeces, day after hatch 16 / Average number of Eimeria spp. oocysts/g faeces, day after hatch 17 / Average number of Eimeria spp. oocysts/g faeces, day after hatch 18 / Average number of Eimeria spp. oocysts/g faeces, day after hatch 19 / Average number of Eimeria spp. oocysts/g faeces, day after hatch 21: infected orally day 10; for Average number of Eimeria spp. oocysts/g faeces, day after hatch 14 / Average number of Eimeria spp. oocysts/g faeces, day after hatch 15 / Average number of Eimeria spp. oocysts/g faeces, day after hatch 16 / Average number of Eimeria spp. oocysts/g faeces, day after hatch 17 / Average number of Eimeria spp. oocysts/g faeces, day after hatch 18 / Average number of Eimeria spp. oocysts/g faeces, day after hatch 19 / Average number of Eimeria spp. oocysts/g faeces, day after hatch 21 / Mean body weight / Mean amount of feed consumed / Average number of Eimeria spp. oocysts/g faeces, Total: in feed B49 100 ppm, B42 150 ppm, B46 100 ppm, Coxistac 60 ppm; for Average number of Eimeria spp. oocysts/g faeces, day after hatch 15: day 15 after hatch; for Average number of Eimeria spp. oocysts/g faeces, day after hatch 16: day 16 after hatch; for Average number of Eimeria spp. oocysts/g faeces, day after hatch 17: day 17 after hatch; for Average number of Eimeria spp. oocysts/g faeces, day after hatch 18: day 18 after hatch; for Average number of Eimeria spp. oocysts/g faeces, day after hatch 19: day 19 after hatch; for Average number of Eimeria spp. oocysts/g faeces, day after hatch 21: day 21 after hatch; for Mean body weight: final weight; for Mean amount of feed consumed: mean total amount per bird; for Average number of Eimeria spp. oocysts/g faeces, Total: total of days 14 to 21 after hatch; for duration of the anticoccidial infection as compared to Coxistac: B49 100 ppm, B42 150 ppm vs Coxistac 60 ppm
Experimental: (§1) The antiparasitic activity of the present compounds as prophylactic agents was evaluated in vivo on 100 one day old (1 day after hatch) chickens of Habbared X breed. The chickens were divided into five groups of 20 birds each, and each group was located in a separate pen (1 m×1 m). The chickens were then fed with unmedicated food up to day 7 after hatch. Fresh water was supplied ad libitum.
(§2) On day 8 after hatch, the five groups were given feed containing the following compounds (1 ppm=1 mg drug/kg feed): • Group #1: B49 (100 ppm); • Group #2: B42 (150 ppm); • Group #3: B46 (100 ppm); • Group #4: Coxistac (60 ppm), a known anticoccidial agent (see U.S. Pat. No. 3,857,948); • Group #5: no drug content (control group).
(§3) The chickens were fed as above on day 8 and 9 after hatch. On day 10 after hatch, each chicken was infected orally by 6 000-7 000 oocysts containing a mixture of 5 mature sporulated strains, namely E. acervulina, E. maxima, E. necatrix, E. tenella and E. brunetti. The groups #1-4 received drug as above from day 10 to 21 after hatch.
(§4) From day 14 to 21 after hatch, fresh fecal droplets were collected and examined daily. The average number of oocysts/g faeces was then calculated in accordance with the co-called Mc-Master technique (Soulsby, 1984).

[2] = tested on: mixture of 8 mature sporulated strains (E. mitis, E. hagani, E. praecox, E. acervulina, E. maxima, E. necatrix, E. tenella and E. brunetti); experiment: Prophylactic anticoccidial evaluation in chickens of Arbor Aker breed; type: in vivo, chicken; details: 100 ppm in feed from day 3 after hatch, infected orally day 7
Experimental: as §1, §2, §3, §4
Moreover, the prophylactic anticoccidial effect of B42, B49 and B51 was also evaluated in chickens of Arbor Aker breed. These trials were conducted by using basically the same test protocol as that used for the chickens of Habbared X breed, albeit with the following modifications: • i) On day 3 after hatch, the tested groups of chickens receieved feed containing 100 ppm of B42, B49, B51 or Coxistac (60 ppm); • ii) On day 7 after hatch, the chickens were infected orally by oocysts containing a mixture of 8 mature sporulated strains, namely E. mitis, E. hagani, E. praecox, E. acervulina, E. maxima, E. necatrix, E. tenella and E. brunetti.

Molecule	feed consumption lower in comparison with the Coxistac treated group ([1]; Habbared X chickens, B46 100 ppm vs Coxistac 60 ppm)	body weight gain ([1]; Habbared X chickens, feed containing B46 100 ppm)	Average number of Eimeria spp. oocysts/g faeces, day after hatch 14 [1]	Average number of Eimeria spp. oocysts/g faeces, day after hatch 15 [1]	Average number of Eimeria spp. oocysts/g faeces, day after hatch 16 [1]	Average number of Eimeria spp. oocysts/g faeces, day after hatch 17 [1]	Average number of Eimeria spp. oocysts/g faeces, day after hatch 18 [1]	Average number of Eimeria spp. oocysts/g faeces, day after hatch 19 [1]	Average number of Eimeria spp. oocysts/g faeces, day after hatch 21 [1]	Mean body weight [1]	Mean amount of feed consumed [1]	Average number of Eimeria spp. oocysts/g faeces, Total [1]	duration of the anticoccidial infection as compared to Coxistac ([1]; Habbared X chickens)	prophylactic anticoccidial effect, results in words [2]
4-nitro-N-{[4-({4-nitro[(4-nitrophenyl)sulfonyl]anilino}-carbothioyl)-1-piperazinyl]carbothioyl}-N-(4-nitrophenyl)benzenesulfonamide [Compound B46]	~67%	fair body weight gain	0.0 oocysts/g faeces	3000 oocysts/g faeces	14000 oocysts/g faeces	99000 oocysts/g faeces	6000 oocysts/g faeces	0.0 oocysts/g faeces	0.0 oocysts/g faeces	54.5 g	39.3 g	122000 oocysts/g faeces		
O=[N+]([O-])c1ccc(S(=O)(=O)N(C(=S)N(c2nc3ccc([N+](=O)[O-])cc3s2)S(=O)(=O)c2ccc([N+](=O)[O-])cc2)c2ccc(F)cc2)cc1 [Compound B42, N-(4-fluorophenyl)-4-nitro-N-({(6-nitro-1,3-benzothiazol-2-yl)[(4-nitrophenyl)sulfonyl]amino}carbothioyl)benzene-sulfonamide]			0.0 oocysts/g faeces	0.0 oocysts/g faeces	3000 oocysts/g faeces	7000 oocysts/g faeces	0.0 oocysts/g faeces	0.0 oocysts/g faeces	0.0 oocysts/g faeces	61.0 g	93 g	10000 oocysts/g faeces	shorter	essentially the same as those reported for the trials with the chickens of Habbared X breed
O=C(O)c1cc(I)c(NC(=S)Nc2ccccc2)c(I)c1 [Compound B49, 4-[(anilinocarbothioyl)amino]-3,5-diiodobenzoic acid]			0.0 oocysts/g faeces	3000 oocysts/g faeces	10000 oocysts/g faeces	20000 oocysts/g faeces	0.0 oocysts/g faeces	0.0 oocysts/g faeces	0.0 oocysts/g faeces	66.0 g	95 g	33000 oocysts/g faeces	shorter	essentially the same as those reported for the trials with the chickens of Habbared X breed
N#Cc1ccc(NC(=S)Nc2ccc([N+](=O)[O-])cc2)cc1 [Compound B51, N-(4-cyanophenyl)-N′-(4-nitrophenyl) thiourea]														comparable with those of B42
CC[C@@H](C(=O)[C@@H](C)[C@@H](O)[C@H](C)[C@@H]1O[C@@H]([C@@H](CC)C(=O)O)CC[C@@H]1C)[C@H]1O[C@]2(C=C[C@@H](O)[C@]3(CC[C@@](C)([C@H]4CC[C@](O)(CC)[C@H](C)O4)O3)O2)[C@H](C)C[C@@H]1C [Coxistac, reference compound]			0.0 oocysts/g faeces	3000 oocysts/g faeces	4000 oocysts/g faeces	7000 oocysts/g faeces	2000 oocysts/g faeces	2000 oocysts/g faeces	0.0 oocysts/g faeces	62.0 g	120 g	18000 oocysts/g faeces		
